Data from US11667602B2, “Compounds and their use” (AstraZeneca AB, priority 2020, dated 2023).

Legend:
[1] = Human Hepatocyte Stability (Test D); format: in vitro ADME; conditions: human, cryopreserved pooled human hepatocytes (LiverPool 10-Donor), geometric mean if run multiple times
In short: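 Pooled 10-donor cryopreserved human hepatocytes (≥80% viable) in L-15 medium at 0.25×10^6 cells per 0.25 mL well. Compound added from 100 μM acetonitrile solution; incubated at 37 °C with shaking, acetonitrile-quenched, LC-MS analysed. Clint (μL/min/10^6 cells) from ln % parent vs time slope; geometric mean of repeat runs.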

human RXFP1 = target: T1, human RXFP1 (Homo sapiens, UniProt Q9HBX9); experiment: Human RXFP1 cGMP Production Assay (Test G); format: cell-based; design: expressed in transfected cells; conditions: HEK293s cells stably transfected with human RXFP1; Green GENIe cGMP biosensor, area under curve 0 to 90 min
T1 sequence (Q9HBX9 1-757): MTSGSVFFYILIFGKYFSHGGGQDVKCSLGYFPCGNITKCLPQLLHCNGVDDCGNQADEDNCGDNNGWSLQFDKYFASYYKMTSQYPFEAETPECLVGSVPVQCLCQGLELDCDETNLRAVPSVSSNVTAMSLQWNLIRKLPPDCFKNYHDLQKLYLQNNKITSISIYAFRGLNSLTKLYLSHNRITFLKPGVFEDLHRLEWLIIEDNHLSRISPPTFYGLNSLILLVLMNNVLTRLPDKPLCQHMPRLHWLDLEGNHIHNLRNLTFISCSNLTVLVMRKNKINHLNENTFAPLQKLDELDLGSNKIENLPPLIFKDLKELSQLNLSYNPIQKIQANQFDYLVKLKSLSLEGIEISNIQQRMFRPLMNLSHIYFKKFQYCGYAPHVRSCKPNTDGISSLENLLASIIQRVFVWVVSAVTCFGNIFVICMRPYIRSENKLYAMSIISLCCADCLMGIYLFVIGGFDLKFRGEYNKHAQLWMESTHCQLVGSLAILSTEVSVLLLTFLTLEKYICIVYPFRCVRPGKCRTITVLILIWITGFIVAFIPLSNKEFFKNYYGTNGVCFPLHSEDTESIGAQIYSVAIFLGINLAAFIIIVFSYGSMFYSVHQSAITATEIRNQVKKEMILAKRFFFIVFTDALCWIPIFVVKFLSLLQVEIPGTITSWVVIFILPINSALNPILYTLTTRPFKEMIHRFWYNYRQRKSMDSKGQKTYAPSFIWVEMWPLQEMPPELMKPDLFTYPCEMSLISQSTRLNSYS
From the text: Human RXFP1 cGMP Production Assay (Test G)
To profile compounds for RXFP1 agonist activity with respect to cGMP production, the Green GENIe cGMP Assay (Montana Molecular; catalogue number D800G) was employed. The assay is based on an nmNeonGreen fusion protein fluorescent biosensor delivered to mammalian cells in a BacMam vector. Fluorescence is reduced when cGMP is bound to the biosensor.
Cells: HEK293s cells stably transfected with human RXFP1 in pIRESneo3 was employed.
Day 1 • 1. Cells were splitted one day ahead of transduction and seeded to 63 000 cells/cm2 in DMEM medium with 10% FBS without antibiotics in a tissue culture flask.
Day 2 • 2. […] A viral transduction mastermix was prepared by mixing reagents in the following proportions for a single well: • 6 μL GENIe BacMAM vector • 0.2 μL 500 mM sodium butyrate • 13.8 μL DMEM medium with 10% FBS • 20 μL total volume • 5. Cells and transduction mastermix were mixed in proportions 30 μL cells and 20 μL mastermix for a single well. • 6. […] Plate was incubated in the dark at 37° C., 5% CO2 for 24 h.
Day 3 • 8. Medium was removed from plates using a Bluewasher (BluCatBio). • 9. 20 μL assay buffer was added with a Multidrop Combi (ThermoFisher). • 10. Plate was incubated in the dark at room temperature for 30 min prior to assaying. • 11. Plates were assayed using a FLIPR Tetra (Molecular Devices): 10 μL compound diluted with assay buffer was added to each well by the FLIPR Tetra and measuring green fluorescence over time for up to 3 h.
Data was processed using Screener software (Genedata A G). After subtraction of background fluorescence (before addition of compounds), area under curve values from 0 to 90 min after compound addition was used for calculation of responses.

[2] = Human Liver Microsomal Stability (Test C); format: in vitro ADME; conditions: human, liver microsomes
In short: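 Human liver microsome incubation per the Wernevik et al. integrated DMPK panel protocol. Intrinsic clearance reported as CLint in μl/min/mg protein, averaged arithmetically over repeat runs.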

| Compound | hepatocyte CLint at 1 µM [1] [µL/min/1e6 cells] | EC50 (human RXFP1) [nM] | microsomal CLint [2] [µL/min/mg] |
| --- | --- | --- | --- |
| COc1cc(F)c(-c2ccc(C(=O)O)cc2)cc1C(=O)N[C@H]1[C@@H](C(=O)Nc2cccc(S(=O)(=O)C(F)(F)F)c2)[C@@H]2C=C[C@H]1C2 (single isomer, unassigned) [Example 552] | 12 | 300 | 7.2 |
| COc1cc(F)c(O[C@H]2CC[C@@](C)(C(=O)O)CC2)cc1C(=O)N[C@@H]1[C@H]2CC[C@H](C2)[C@@H]1C(=O)Nc1cccc(S(=O)(=O)C(F)(F)F)c1 [Example 208, (1S,4s)-4-(2-Fluoro-4-methoxy-5-(((1S,2R,3S,4R)-3-((3-((trifluoromethyl)sulfonyl)phenyl)carbamoyl)bicyclo[2.2.1]heptan-2-yl)carbamoyl)phenoxy)-1-methylcyclohexane-1-carboxylic acid] | 15 | 9.3 | 54 |
| COc1cc(F)c(O[C@H]2CC[C@@](C)(C(=O)O)CC2)cc1C(=O)N[C@@H]1[C@H]2CC[C@H](C2)[C@@H]1C(=O)Nc1ccc(F)c(S(F)(F)(F)(F)F)c1 [Example 353] | 21 | 3.7 | 61 |
| COc1cc(F)c(O[C@H]2CC[C@@H](C(=O)O)CC2)cc1C(=O)N[C@@H]1[C@H]2CC[C@H](C2)[C@@H]1C(=O)Nc1ccc(F)c(S(F)(F)(F)(F)F)c1 [Example 433] | 14 | 19 | 43 |
